Experimental data reported in BindingDB's records for doi:10.3109/14756366.2011.639016 (Gazi University, 2013).

What was measured:
Carbonic anhydrase 1 = Carbonic anhydrase 1 (Homo sapiens, UniProt P00915); experiment: Esterase Activity Assay; conditions: pH 7.4
Protocol: (§1) The enzymatic reaction contained 1.4 mL 0.05 M Tris-SO4 buffer(pH 7.4), 1 mL 3 mM 4-nitrophenylacetate, 0.5 mL H2O and 0.1 mL enzyme solution (total volume, 3.0 mL). A reference measurement was obtained by preparing themixture without the enzyme solution. All measurements were made in triplicate.

Carbonic anhydrase 2 = Carbonic anhydrase 2 (Homo sapiens, UniProt P00918); experiment: Esterase Activity Assay; conditions: pH 7.4
Protocol: as §1

Carbonic anhydrase 1, sequence (P00915 whole entry): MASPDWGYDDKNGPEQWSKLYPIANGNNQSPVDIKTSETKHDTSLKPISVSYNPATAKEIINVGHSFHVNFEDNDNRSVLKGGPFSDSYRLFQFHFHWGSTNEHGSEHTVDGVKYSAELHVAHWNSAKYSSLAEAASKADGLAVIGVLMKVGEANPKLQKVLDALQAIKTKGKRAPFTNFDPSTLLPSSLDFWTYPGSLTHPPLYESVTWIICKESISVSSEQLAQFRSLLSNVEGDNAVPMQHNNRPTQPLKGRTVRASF

Row | Compound | IC50 (Carbonic anhydrase 1) [µM] | Ki (Carbonic anhydrase 1) [µM] | IC50 (Carbonic anhydrase 2) [µM] | Ki (Carbonic anhydrase 2) [µM]
1 | Cc1ccc(-c2c(C#N)c(N)nc3c2CCC3)o1 [CA inhibitor, 5d] | 33 | 23.8 | 56 | 41
2 | Cc1ccc(-c2c(C#N)c(N)nc3c2CCSC3)s1 [CA inhibitor, 5i] | 55 | 38.4 |  | 
3 | Cc1ccc(-c2c(C#N)c(N)nc3c2CCCCC3)o1 [CA inhibitor, 5f] | 53 | 58.5 |  | 
4 | Cc1ccc(-c2c(C#N)c(N)nc3c2CCSC3)o1 [CA inhibitor, 5l] | 53 | 50.3 |  | 
5 | Cc1ccc(-c2c(C#N)c(N)nc3c2CCCC3)o1 [CA inhibitor, 5e] | 48 | 89 |  | 

Now from value to molecule:

Row | IC50 (Carbonic anhydrase 1) [µM] | Ki (Carbonic anhydrase 1) [µM] | IC50 (Carbonic anhydrase 2) [µM] | Ki (Carbonic anhydrase 2) [µM] | Compound
6 | 34 | 31 | 99 | 182 | Cc1ccc(-c2c(C#N)c(N)nc3c2CCCC3)s1 [2-azanyl-4-(5-methylthiophen-2-yl)-5,6,7,8-tetrahydroquinoline-3-carbonitrile]
7 | 40 | 30.6 | 77 | 73 | Cc1ccc(-c2c(C#N)c(N)nc3c2CCCCC3)s1 [CA inhibitor, 5c]
